Measured values as given in ChEMBL document CHEMBL1201862, “PubChem BioAssay data set” (2004).
Active and inactive are the calls of the source.

Key:
Caspase-6 = target: T1, Caspase-6 (Homo sapiens, UniProt P55212); assay: inhibition of CASP6 peptide cleavage – biochemical, VEID-R110 fluorescence, cherry-pick, dose response (AID 720632)
T1 sequence (P55212 whole entry): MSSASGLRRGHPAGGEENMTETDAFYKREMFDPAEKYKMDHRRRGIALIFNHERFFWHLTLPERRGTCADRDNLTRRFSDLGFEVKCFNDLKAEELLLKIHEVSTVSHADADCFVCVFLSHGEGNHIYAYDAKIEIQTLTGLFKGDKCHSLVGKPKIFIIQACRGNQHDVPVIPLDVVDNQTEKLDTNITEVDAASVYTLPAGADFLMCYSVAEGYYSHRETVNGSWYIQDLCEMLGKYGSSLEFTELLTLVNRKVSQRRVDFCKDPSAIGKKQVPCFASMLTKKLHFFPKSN

[1] = target: Induced myeloid leukemia cell differentiation protein Mcl-1 (Homo sapiens, UniProt Q07820); type: functional
Caspase-8 = Caspase-8 (Homo sapiens, UniProt Q14790); assay: inhibitors of purified CASP8 protease – biochemical, Z-IETD-R110 fluorescence, cherry-picked samples, selectivity assay for caspase-6 inhibitor project, dose response (AID 743294)
Vero = assay: viability of Vero cells under compound – cytotoxicity control for flavivirus capping enzyme inhibitors (AID 588742); type: functional; conditions: Chlorocebus sabaeus
[2] = HepG2 cell cytotoxicity, dose response, cytotoxicity control for non-replicating M. tuberculosis project (AID 489018); type: functional; conditions: Mycobacterium tuberculosis
[3] = THP-1 cell cytotoxicity, dose response, cytotoxicity control for non-replicating M. tuberculosis project (AID 489025); type: functional
[4] = target: T2, Tyrosyl-DNA phosphodiesterase 2 (Homo sapiens, UniProt O95551); assay: potency against TDP2 phosphodiesterase activity – biochemical, epi absorbance, IC50, dose response (AID 743297)
T2 sequence (O95551 whole entry): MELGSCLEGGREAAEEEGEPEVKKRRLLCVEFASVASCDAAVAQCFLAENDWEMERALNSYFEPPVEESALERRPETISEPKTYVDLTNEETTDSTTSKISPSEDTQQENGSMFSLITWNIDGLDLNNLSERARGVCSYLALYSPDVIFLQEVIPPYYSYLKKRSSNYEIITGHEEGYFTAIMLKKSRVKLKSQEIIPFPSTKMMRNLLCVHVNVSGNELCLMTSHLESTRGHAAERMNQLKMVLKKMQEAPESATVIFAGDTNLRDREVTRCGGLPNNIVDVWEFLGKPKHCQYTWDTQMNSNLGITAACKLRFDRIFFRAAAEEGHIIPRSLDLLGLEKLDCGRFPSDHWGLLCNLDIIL

Caspase-3 = target: T3, Caspase-3 (Homo sapiens, UniProt P42574); type: functional;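 further: Dose-response selectivity test against caspase-3 for candidate inhibitors of sentrin-specific proteases (SENPs)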
T3 sequence (P42574 whole entry): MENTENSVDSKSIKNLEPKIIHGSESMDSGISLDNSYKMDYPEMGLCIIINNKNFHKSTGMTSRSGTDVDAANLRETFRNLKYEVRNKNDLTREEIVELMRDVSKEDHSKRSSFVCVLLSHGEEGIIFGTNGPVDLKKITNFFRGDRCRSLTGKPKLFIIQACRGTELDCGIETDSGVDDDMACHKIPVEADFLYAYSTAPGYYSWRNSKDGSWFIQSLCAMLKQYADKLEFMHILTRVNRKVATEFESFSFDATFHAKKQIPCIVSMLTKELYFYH

Phospholipase A2 = Phospholipase A2 (Homo sapiens, UniProt P04054); type: functional;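 further: confirmatory dose-response counterscreen on phospholipase A2, testing hits that came from an ultra-high-throughput screen for ATG4B inhibitors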
[5] = target: 1-phosphatidylinositol 4,5-bisphosphate phosphodiesterase gamma-1 (Homo sapiens, UniProt P19174); assay: Counterscreen for inhibitors of phospholipase C isozymes (PLC-B3): Fluorescence-based biochemical high throughput dose response assay to identify inhibitors of phospholipase C isozymes (PLC-gamma1).
1-phosphatidylinositol 4,5-bisphosphate phosphodiesterase gamma-1, sequence (P19174 whole entry): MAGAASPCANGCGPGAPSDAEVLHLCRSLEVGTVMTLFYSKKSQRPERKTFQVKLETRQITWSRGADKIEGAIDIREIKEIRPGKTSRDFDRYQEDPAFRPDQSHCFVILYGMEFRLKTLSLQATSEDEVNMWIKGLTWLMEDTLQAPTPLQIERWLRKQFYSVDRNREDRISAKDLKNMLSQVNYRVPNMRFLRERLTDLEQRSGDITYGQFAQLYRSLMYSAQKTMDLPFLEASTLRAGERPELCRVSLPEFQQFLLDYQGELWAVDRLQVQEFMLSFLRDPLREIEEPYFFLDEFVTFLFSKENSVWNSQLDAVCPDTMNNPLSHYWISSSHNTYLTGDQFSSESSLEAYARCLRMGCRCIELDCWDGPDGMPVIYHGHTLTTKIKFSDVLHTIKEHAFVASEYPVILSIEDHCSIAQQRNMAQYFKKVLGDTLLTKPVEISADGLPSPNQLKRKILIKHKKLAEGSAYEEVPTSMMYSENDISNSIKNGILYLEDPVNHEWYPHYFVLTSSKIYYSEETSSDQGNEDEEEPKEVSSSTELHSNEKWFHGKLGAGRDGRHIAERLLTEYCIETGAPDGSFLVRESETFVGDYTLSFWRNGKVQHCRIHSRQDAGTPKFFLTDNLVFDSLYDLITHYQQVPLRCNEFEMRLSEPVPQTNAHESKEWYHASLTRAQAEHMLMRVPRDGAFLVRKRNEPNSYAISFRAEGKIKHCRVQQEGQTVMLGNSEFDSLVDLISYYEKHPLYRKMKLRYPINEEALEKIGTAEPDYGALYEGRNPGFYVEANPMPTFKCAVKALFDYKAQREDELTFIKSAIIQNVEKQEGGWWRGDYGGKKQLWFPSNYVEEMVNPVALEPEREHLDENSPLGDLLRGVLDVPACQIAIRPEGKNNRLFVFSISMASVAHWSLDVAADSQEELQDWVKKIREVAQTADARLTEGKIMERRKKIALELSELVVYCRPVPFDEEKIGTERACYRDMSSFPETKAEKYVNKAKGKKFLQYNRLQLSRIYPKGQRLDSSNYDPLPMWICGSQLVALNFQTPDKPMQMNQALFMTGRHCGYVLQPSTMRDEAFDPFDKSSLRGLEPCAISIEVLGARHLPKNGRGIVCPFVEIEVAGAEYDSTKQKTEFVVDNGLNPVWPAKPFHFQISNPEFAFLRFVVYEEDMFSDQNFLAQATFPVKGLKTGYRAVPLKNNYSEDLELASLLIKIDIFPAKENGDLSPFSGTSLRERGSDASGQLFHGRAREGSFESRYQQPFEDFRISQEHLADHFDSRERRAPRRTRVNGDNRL

Induced myeloid leukemia cell differentiation protein Mcl-1, sequence (Q07820 whole entry): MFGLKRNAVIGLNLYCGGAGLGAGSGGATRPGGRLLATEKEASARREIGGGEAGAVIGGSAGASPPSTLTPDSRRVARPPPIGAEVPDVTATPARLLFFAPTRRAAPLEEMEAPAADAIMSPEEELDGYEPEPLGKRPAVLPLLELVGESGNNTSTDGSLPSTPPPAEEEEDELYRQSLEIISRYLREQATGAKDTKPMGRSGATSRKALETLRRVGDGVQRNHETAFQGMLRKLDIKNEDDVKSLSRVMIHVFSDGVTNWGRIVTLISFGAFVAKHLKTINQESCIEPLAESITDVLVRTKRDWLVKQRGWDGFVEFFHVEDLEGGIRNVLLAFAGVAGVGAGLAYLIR
Phospholipase A2, sequence (P04054 whole entry): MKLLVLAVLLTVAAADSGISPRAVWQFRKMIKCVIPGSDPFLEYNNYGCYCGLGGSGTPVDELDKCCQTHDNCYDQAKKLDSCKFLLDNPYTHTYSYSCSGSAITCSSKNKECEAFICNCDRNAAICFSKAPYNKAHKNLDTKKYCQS
Caspase-8, sequence (Q14790 217-374 limits assumed): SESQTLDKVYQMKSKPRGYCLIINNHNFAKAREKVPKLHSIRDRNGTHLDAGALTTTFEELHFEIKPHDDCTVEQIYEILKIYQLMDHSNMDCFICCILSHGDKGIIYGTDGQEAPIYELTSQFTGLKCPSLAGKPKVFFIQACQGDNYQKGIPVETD
Caspase-8, sequence (Q14790 385-479 limits assumed): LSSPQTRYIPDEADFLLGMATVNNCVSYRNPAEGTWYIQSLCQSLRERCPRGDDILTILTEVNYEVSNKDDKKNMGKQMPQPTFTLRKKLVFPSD

SMILES | AC50 (Caspase-6) | IC50 [1] | AC50 (Caspase-8) | CC50 (Vero) | CC50 [2] | CC50 [3] | IC50 [4] | IC50 (Caspase-3) | IC50 (Phospholipase A2) | IC50 [5]
COc1cc(-c2ccc(Nc3ccccc3C(=O)O)c(OC)c2)ccc1Nc1ccccc1C(=O)O | 4.6 µM (active) | 1.52 µM (active) | 48 µM (active) | – | – | – | – | – | – | –
COC(CNC(=O)c1ccc2c3c(onc13)-c1ccccc1C2=O)OC | – | – | – | 20.4 µM (active) | 15.1 µM (active) | 7.86 µM (active) | – | – | – | –
COc1ccc(OC)c(Nc2cc3ccccc3c(O)n2)c1 | 2.44 µM (active) | – | 6.14 µM (active) | – | – | – | 24.9 µM (inactive) | 1.88 µM (active) | – | –
O=C(O)c1ccc(NC2=C/C(=N/S(=O)(=O)c3ccccc3)c3ccccc3C2=O)cc1 | – | 1.65 µM (active) | – | 31.4 µM (active) | – | – | 1.88 µM (active) | 4.5 µM (active) | 34.7 µM (inactive) | 45.5 µM (inactive)
Nc1ccc2c(c1)C(=O)C(=O)c1ccccc1-2 | – | – | – | – | 7.59 µM (active) | 2.74 µM (active) | 1.34 µM (active) | – | 48.8 µM (inactive) | 5.14 µM (active)
